Experimental data as given in US8211901B2, “Naphthamide derivatives as multi-target protein kinase inhibitors and histone deacetylase inhibitors” (Shenzhen Chipscreen Biosciences Ltd., priority 2009, dated 2012).

Legend:
Assay type in all cases: in vivo, nu/nu mice
[1] = Body weight in HCT-8 xenograft study (Example 54)
Experimental: (§1) The antitumor activity of compound 33 and compound 34 were measured in human HCT-8 colon cancer xenograft model. The female nu/nu mice of 18˜20 g were fed by normal diet for 3 days. Then the cultured HCT-8 human colon cancer cells were implanted into the armpit of 50 mice. When tumors had reached approximately 100 mm^3, the mice were divided into 6 groups randomly. Each group has 8 mice. One group was treated with vehicle. One group was treated with sutent, the positive control drug. Two groups were treated with compound 33. The other two groups were treated with compound 34. Each group was dosed orally once a day for 20 days. Tumor volumes as established by caliper measurements were recorded twice per week, along with body weights. At the end of study, the mice were killed, and tumors were weighed. The tumor growth inhibition of each group was calculated using the formula {[(the average tumor weight of vehicle group)−(the average tumor weight of drug group)]/(the average tumor weight of vehicle group)}×100%.

[2] = Body weight in HCT-8 xenograft study (Example 55)
Experimental: as §1, with “37” for “34”, “When tumors had reached approximately 100 mm^3, the mice were divided into 6 groups randomly. Each group has 8 mice.” left out, “37. Compound 33 was administered twice a day with an interval of 6 hours. Other drugs and vehicle were administered once a day.” for “34.”, “orally” for “orally once a day”

[3] = test system: human SSMC7721 liver cancer xenograft; assay: Antitumor activity of compound 31, SSMC7721 xenograft (Example 53)
Experimental: (§2) The antitumor activity of compound 31 was measured in human SSMC7721 liver cancer xenograft model. The female nu/nu mice of 18˜20 g were fed by normal diet for 3 days. Then the cultured SSMC7721 human liver cancer cells were implanted into the armpit of 50 mice. […] One group was treated with vehicle. One group was treated with sutent, the positive control drug. […] Each group was dosed orally once a day for 30 days. Tumor volumes as established by caliper measurements were recorded twice per week, along with body weights. At the end of study, the mice were killed, and tumors were weighed. The tumor growth inhibition of each group was calculated using the formula {[(the average tumor weight of vehicle group)−(the average tumor weight of drug group)]/(the average tumor weight of vehicle group)}×100%.

[4] = Body weight in A549 xenograft study (Example 51)
Experimental: The antitumor activity of compound 31 was measured in human A549 lung cancer xenograft model. […] Then the cultured A549 human lung cancer cells were implanted into the armpit of 50 mice. When tumors had reached approximately 6 mm in diameter, the mice were divided into 6 groups randomly. Each group has 8 mice. One group was treated with vehicle. One group was treated with sutent, the positive control drug. […] Each group was dosed orally once a day for 24 days. Tumor volumes as established by caliper measurements were recorded twice per week, along with body weights. At the end of study, the mice were killed, and tumors were weighed. The tumor growth inhibition of each group was calculated using the formula {[(the average tumor weight of vehicle group)-(the average tumor weight of drug group)]/(the average tumor weight of vehicle group)}×100%.

[5] = Body weight in HCT-8 xenograft study (Example 52)
Experimental: as §1, with “31 was” for “33 and compound 34 were”, “Two groups were treated with compound 33. The other two groups were treated with compound 34.” left out

[6] = Body weight in SSMC7721 xenograft study (Example 53)
Experimental: as §2

[7] = 30 mg/kg orally once a day for 20 days
[8] = 60 mg/kg orally once a day for 20 days
[9] = 30 × 2 mg/kg orally twice a day with an interval of 6 hours for 20 days
[10] = 60 × 2 mg/kg orally twice a day with an interval of 6 hours for 20 days
[11] = 2.5 mg/kg orally once a day for 30 days
[12] = 5 mg/kg orally once a day for 30 days
[13] = 10 mg/kg orally once a day for 30 days
[14] = 20 mg/kg orally once a day for 30 days
[15] = 5 mg/kg orally once a day for 24 days
[16] = 10 mg/kg orally once a day for 24 days
[17] = 20 mg/kg orally once a day for 24 days
[18] = 40 mg/kg orally once a day for 24 days
[19] = 2.5 mg/kg orally once a day for 20 days
[20] = 5 mg/kg orally once a day for 20 days
[21] = 10 mg/kg orally once a day for 20 days
[22] = 20 mg/kg orally once a day for 20 days

In the case of COc1ccc2c(Oc3ccc4c(C(=O)NCc5ccc(C(=O)Nc6ccccc6N)cc5)cccc4c3)ccnc2c1 [Example 33, N-(4-((2-aminophenyl)carbamoyl)benzyl)-6-(7-methoxyquinolin-4-yloxy)-1-naphthamide], the “Body weight (g) end” value [1, 7] is reported as 21.1 ± 2.2 g, the “Body weight (g) start” value [1, 7] is reported as 19.0 ± 1.3 g and the “Body weight (g) end” value [1, 8] is reported as 21.4 ± 1.5 g. The “Body weight (g) start” value [1, 8] was 19.4 ± 0.8 g, the “Body weight (g) end” value [2, 9] was 22.6 ± 1.6 g and the “Body weight (g) start” value [2, 9] was 21.1 ± 1.2 g. For the same compound, the “Body weight (g) end” value [2, 10] was 19.0 ± 1.8 g and the “Body weight (g) start” value [2, 10] was 20.1 ± 0.9 g.

With COc1ccc2c(Oc3ccc4c(C(=O)Nc5ccccc5N)cccc4c3)ccnc2c1 [Example 31, N-(2-aminophenyl)-6-(7-methoxyquinolin-4-yloxy)-1-naphthamide] the “TGI (%) Tumor growth inhibition” value [3, 11] was 51.7%, the “Tumor weight” value [3, 11] was 1.63 ± 0.70 g and the “TGI (%) Tumor growth inhibition” value [3, 12] was 65.4%. For the same compound, the “Tumor weight” value [3, 12] was 1.16 ± 0.55 g, the “TGI (%) Tumor growth inhibition” value [3, 13] was 79.2% and the “Tumor weight” value [3, 13] was 0.70 ± 0.45 g. For the same compound, the “TGI (%) Tumor growth inhibition” value [3, 14] was 84.4%, the “Tumor weight” value [3, 14] was 0.53 ± 0.28 g and the “Body weight (g) end” value [4, 15] was 24.6 ± 1.3 g. For the same compound, the “Body weight (g) start” value [4, 15] was 21.1 ± 0.6 g, the “Body weight (g) end” value [4, 16] was 25.1 ± 1.3 g and the “Body weight (g) start” value [4, 16] was 19.9 ± 1.3 g. For the same compound, the “Body weight (g) end” value [4, 17] was 24.2 ± 0.7 g, the “Body weight (g) start” value [4, 17] was 20.6 ± 1.1 g and the “Body weight (g) end” value [4, 18] was 22.6 ± 2.4 g. For the same compound, the “Body weight (g) start” value [4, 18] was 20.0 ± 0.9 g, the “Body weight (g) end” value [5, 19] was 24.5 ± 1.1 g and the “Body weight (g) start” value [5, 19] was 20.3 ± 0.8 g. The “Body weight (g) end” value [5, 20] was 24.8 ± 1.5 g, the “Body weight (g) start” value [5, 20] was 21.6 ± 1.4 g and the “Body weight (g) end” value [5, 21] was 23.7 ± 0.8 g. For the same compound, the “Body weight (g) start” value [5, 21] was 20.7 ± 1.1 g, the “Body weight (g) end” value [5, 22] was 22.5 ± 1.6 g and the “Body weight (g) start” value [5, 22] was 20.5 ± 1.3 g. For the same compound, the “Body weight (g) end” value [6, 11] was 23.2 ± 2.1 g, the “Body weight (g) start” value [6, 11] was 20.1 ± 0.9 g and the “Body weight (g) end” value [6, 12] was 24.8 ± 1.5 g. For the same compound, the “Body weight (g) start” value [6, 12] was 20.8 ± 1.2 g, the “Body weight (g) end” value [6, 13] was 23.6 ± 1.5 g and the “Body weight (g) start” value [6, 13] was 20.4 ± 1.6 g. The “Body weight (g) end” value [6, 14] was 21.0 ± 2.2 g and the “Body weight (g) start” value [6, 14] was 20.2 ± 1.7 g.
